Structures can show the parent of a compound that is named as a salt.
Columns and labels:
Details in all cases: exposure time 48 h
[1] = test system: Caenorhabditis elegans N2; assay: AC50 for larval growth inhibition (Hill fit); higher = less potent
Method in brief: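 Synchronised C. elegans N2 L1 larvae (50 per well, 96-well plates) were grown for 48 h at 20°C in K-medium with killed OP50, 1% DMSO and 0.5–200 µM chemical. The COPAS Biosort measured each worm's size as extinction, which was log-transformed and averaged per well. AC50 came from a constrained Hill fit by weighted genetic-algorithm regression on wells with at least 10 worms. Out-of-range values are censored.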

[2] = test system: Caenorhabditis elegans N2; assay: lowest effective concentration for larval growth inhibition (size below effect threshold); higher = less potent
Method in brief: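 C. elegans N2 L1 larvae (50 per 96-well) were grown 48 h at 20°C in K-medium with killed bacteria, 1% DMSO and 0.5, 1, 5, 10, 50, 100 or 200 µM chemical. The Biosort measured per-worm extinction as size, and these were log-transformed into well means. The lowest effective concentration is the first dose where the plate-adjusted mean size drops under the 5.665 threshold and stays under it at higher doses.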

[3] = test system: Caenorhabditis elegans N2; assay: mean nematode size ln(EXT) after 48 h, plate-adjusted (DMSO control set to 6) (ln(EXT), control-adjusted); higher = larger nematodes / less growth inhibition
Method in brief: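 Each treatment used 4–6 wells of 50 synchronised C. elegans N2 L1 larvae, kept for 48 h at 20°C in K-medium with killed OP50, 1% DMSO and 0.5–200 µM chemical. Debris was excluded by a growth model after the Biosort measured per-worm extinction. Mean size per well came from natural-logged values and was plate-adjusted. That adjustment subtracted the vehicle control mean and then added 6.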

Row | SMILES | AC50 for larval growth inhibition [1] [µM] | lowest effective concentration [2] [µM] | mean nematode size ln(EXT) (ln) ([3]; 0.5 µM) | mean nematode size ln(EXT) (ln) ([3]; 1 µM) | mean nematode size ln(EXT) (ln) ([3]; 5 µM) | mean nematode size ln(EXT) (ln) ([3]; 10 µM) | mean nematode size ln(EXT) (ln) ([3]; 50 µM) | mean nematode size ln(EXT) (ln) ([3]; 100 µM) | mean nematode size ln(EXT) (ln) ([3]; 200 µM)
1 | CCC1(c2ccccc2)C(=O)NC(=O)NC1=O [Phenobarbital sodium salt] | > 200 | 200 | 5.87 | 5.82 | 5.88 | 5.86 | 5.87 | 5.91 | 5.65
2 | c1ccc(/N=N/c2ccccc2)cc1 [Azobenzene] | 91.6 | 10 | 5.73 | 5.67 | 5.67 | 5.61 | 5.21 | 4.48 | 3.5
3 | CCCCCCCCCCCCc1ccccc1S(=O)(=O)O [Dodecylbenzenesulfonic acid, Na salt] | 50.2 | 50 | 5.73 | 5.72 | 5.8 | 5.99 | 4.92 | 3.85 | 3.24
4 | CCCCOC(=O)[C@H](C)Oc1ccc(Oc2ccc(C#N)cc2F)cc1 [Cyhalofop-butyl] | 107 | 200 | 6 | 6 | 6.12 | 6.17 | 6.08 | 5.91 | 5.22
5 | C=CCCCCCCCCC(=O)O [10-Undecenoic acid] | > 200 | 200 | 5.77 | 6 | 5.9 | 5.88 | 5.76 | 5.8 | 5.62
6 | Cc1ccc(C)c(O)c1C [2,3,6-Trimethylphenol] | > 200 | 200 | 5.88 | 6.02 | 5.94 | 5.93 | 5.93 | 5.9 | 5.65
7 | Oc1ccc2ccc3cccc4ccc1c2c34 [1-Hydroxypyrene] | 16 | 50 | 6 | 5.88 | 5.84 | 5.75 | 3.72 | 3.8 | 3.87
8 | CSC1=N[C@@](C)(c2ccccc2)C(=O)N1Nc1ccccc1 [Fenamidone] | 105 | 200 | 5.9 | 5.9 | 5.86 | 5.96 | 6.02 | 5.83 | 5.41
9 | CCCCOCN(C(=O)CCl)c1c(CC)cccc1CC [Butachlor] | 13.8 | 200 | 5.93 | 6.1 | 6.07 | 6.12 | 6.05 | 6.08 | 5.44
10 | CC(C)N(C(=O)COc1nnc(C(F)(F)F)s1)c1ccc(F)cc1 [Flufenacet] | 21.5 | 200 | 5.91 | 5.94 | 6.03 | 6.05 | 5.45 | 6.04 | 5.52
11 | CC(C)(c1ccccc1)c1ccc(O)cc1 [4-Cumylphenol] | 110 | 100 | 6.04 | 5.96 | 5.97 | 5.84 | 5.92 | 5.3 | 4.34
12 | CC(C)(C)c1cc(O)c(C(C)(C)C)cc1O [1,4-Benzenediol, 2,5-bis(1,1-dimethylethyl)-] | 113 | 100 | 5.85 | 5.93 | 5.73 | 5.79 | 5.7 | 4.85 | 3.48
13 | O=C(O)C(O)C(O)C(=O)O (stereo not given) [Tartaric acid] | > 200 | 200 | 5.84 | 5.89 | 5.79 | 5.79 | 5.9 | 5.82 | 5.17
14 | CC1(C)C(C(=O)OC(C#N)c2cccc(Oc3ccccc3)c2)C1(C)C (stereo not given) [Fenpropathrin] | > 200 | 50 | 5.91 | 5.81 | 5.77 | 5.93 | 5.22 | 5.22 | 4.68
15 | O=[N+]([O-])c1ccc(Cl)c(Cl)c1 [1,2-Dichloro-4-nitrobenzene] | 111 | 100 | 5.95 | 5.94 | 5.93 | 5.99 | 5.79 | 5.66 | 5.54
16 | CC/C(=N\OC/C=C/Cl)C1=C(O)CC(C2CCOCC2)CC1=O (stereo not given) [Tepraloxydim] | > 200 | 200 | 5.72 | 5.89 | 5.74 | 5.83 | 5.77 | 5.86 | 5.43
17 | CCCCCCCCOC(=O)CCCCCCCCC(=O)OCCCCCCCC [Sebacic acid di-n-octyl ester] | 39.2 | 200 | 5.75 | 5.77 | 5.82 | 6.22 | 5.69 | 5.67 | 5.58
18 | CCCCCCCCOc1ccc(C(=O)c2ccccc2)c(O)c1 [2-Hydroxy-4-(octyloxy)benzophenone] | 19.2 | 50 | 5.91 | 5.98 | 5.92 | 5.95 | 5.61 | 5.56 | 5.64
19 | CC(C)(c1cc(Br)c(O)c(Br)c1)c1cc(Br)c(O)c(Br)c1 [3,3',5,5'-Tetrabromobisphenol A] | 28.3 | 10 | 5.84 | 5.92 | 5.93 | 5.56 | 4.75 | 4.36 | 4.27
20 | CC(C)(C)c1ccc(CSc2cnn(C(C)(C)C)c(=O)c2Cl)cc1 [Pyridaben] | < 0.5 | ≤ 0.5 | 4.73 | 4.44 | 4.31 | 4.22 | 4.14 | 3.92 | 3.87
21 | Cc1cc2c3c(c1)C(c1ccccc1)=N[C@@H](NC(=O)c1ccncc1)C(=O)N3CC2 | > 200 | 200 | 5.86 | 5.88 | 5.88 | 5.88 | 5.9 | 5.83 | 5.23
22 | CCCCCCCCCCCCCCCO [1-Pentadecanol] | > 200 | 50 | 5.76 | 5.96 | 5.83 | 5.8 | 5.59 | 5.49 | 5.3
23 | Nc1ccc(Cl)cc1 [p-Chloroaniline] | 58.2 | 50 | 5.79 | 5.76 | 5.74 | 5.76 | 5.28 | 4.43 | 4.21

Row | SMILES | AC50 for larval growth inhibition [1] [µM] | lowest effective concentration [2] [µM] | mean nematode size ln(EXT) (ln) ([3]; 0.5 µM) | mean nematode size ln(EXT) (ln) ([3]; 1 µM) | mean nematode size ln(EXT) (ln) ([3]; 5 µM) | mean nematode size ln(EXT) (ln) ([3]; 10 µM) | mean nematode size ln(EXT) (ln) ([3]; 50 µM) | mean nematode size ln(EXT) (ln) ([3]; 100 µM) | mean nematode size ln(EXT) (ln) ([3]; 200 µM)
24 | Cc1nn(-c2cc(NS(C)(=O)=O)c(Cl)cc2Cl)c(=O)n1C(F)F [Sulfentrazone] | 108 | 200 | 5.85 | 5.87 | 5.92 | 5.96 | 6.05 | 5.9 | 5.5
25 | NC(=O)N(O)[C@@H]1COc2cc(OCc3ccccc3)ccc21 | > 200 | 200 | 5.86 | 5.87 | 5.82 | 5.77 | 5.84 | 5.81 | 5.59
26 | NC(=O)Cn1c(=O)cc(CCN2CCN(c3nccc4sccc34)CC2)c2ccc(F)cc21 [Trelanserin] | > 200 | 200 | 5.9 | 5.78 | 5.75 | 5.81 | 5.71 | 5.7 | 5.54
27 | O=C(NC(=O)c1c(F)cccc1F)Nc1ccc(OC(F)(F)C(F)OC(F)(F)F)c(Cl)c1 (stereo not given) [Novaluron] | > 200 | 50 | 5.83 | 5.74 | 5.85 | 5.88 | 5.61 | 5.12 | 4.56
28 | c1ccc(-c2ccccc2)cc1 [Biphenyl] | 164 | 200 | 5.85 | 5.87 | 5.9 | 5.96 | 5.92 | 5.74 | 3.88
29 | O=c1[nH]sc2ccccc12 [1,2-Benzisothiazolin-3-one] | > 200 | 100 | 5.72 | 5.71 | 5.73 | 5.74 | 5.69 | 5.5 | 5.48
30 | COc1cc(C(C)C)c2c(c1)S(=O)(=O)N(COc1cc(=O)n3cccc(OCCN4CCCCC4)c3n1)C2=O | > 200 | 200 | 5.91 | 5.92 | 5.88 | 5.88 | 5.87 | 5.72 | 5.47
31 | COC(=O)C=C(C)OP(=O)(OC)OC [Mevinphos] | 156 | 200 | 6.16 | 6.21 | 6.22 | 6.29 | 4.99 | 5.74 | 3.88
32 | CCCCCCCCCC[N+](C)(C)CCCCCCCCCC [Didecyl dimethyl ammonium chloride] | 17 | 10 | 5.9 | 5.91 | 5.88 | 5.51 | 3.71 | 3.63 | 3.62
33 | CC(C)=CCC/C(C)=C\CO [cis-3,7-Dimethyl-2,6-octadien-1-ol] | > 200 | 200 | 5.8 | 5.76 | 5.79 | 5.75 | 5.78 | 5.69 | 5.63
34 | C[Si]1(C)O[Si](C)(C)O[Si](C)(C)O[Si](C)(C)O1 [Octamethylcyclotetrasiloxane] | 183 | 200 | 5.99 | 5.98 | 5.96 | 5.97 | 5.98 | 6.05 | 4.48
35 | O=[N+]([O-])C(Br)(CO)CO [Bronopol] | > 200 | 50 | 5.88 | 5.93 | 5.93 | 5.84 | 5.65 | 5.56 | 4.95
36 | c1ccc2cc3c(ccc4ccccc43)cc2c1 [Benz[a]anthracene] | 24.9 | 1 | 5.89 | 4.38 | 5.22 | 5.01 | 4.59 | 4.58 | 3.32
37 | Oc1ccccc1-c1ccccc1 [2-Phenylphenol] | 179 | 200 | 5.84 | 5.73 | 5.68 | 5.99 | 6.05 | 5.96 | 5.13
38 | N#Cc1ccc(N(CC(N)=O)CC(F)(F)F)cc1C(F)(F)F | > 200 | 200 | 5.89 | 5.86 | 5.91 | 6 | 5.95 | 5.91 | 5.47
39 | CCc1ccc(O)c(C(C)(C)C)c1 [2-tert-Butyl-4-ethylphenol] | > 200 | 50 | 5.77 | 5.75 | 5.72 | 5.86 | 5.45 | 5.58 | 4.88
40 | C=CC(=O)OCCCCCC(C)C [Isooctyl acrylate] | > 200 | 200 | 5.42 | 5.47 | 5.59 | 5.64 | 5.7 | 5.68 | 5.52
41 | CCCCCCCC/C=C\CCCCCCCC(=O)OC[C@@H](O)[C@H]1OC[C@H](O)[C@H]1O [Sorbitan, mono-(9Z)-9-octadecenoate] | > 200 | 200 | 5.92 | 5.88 | 5.92 | 5.89 | 5.89 | 5.83 | 5.34
42 | COc1nn(CSP(=S)(OC)OC)c(=O)s1 [Methidathion] | > 200 | 1 | 5.74 | 5.62 | 5.48 | 5.52 | 5.57 | 5.38 | 4.52
43 | NS(=O)(=O)C(F)(F)C(F)(F)C(F)(F)C(F)(F)C(F)(F)C(F)(F)C(F)(F)C(F)(F)F [Perfluorooctanesulfonamide] | 7.84 | 5 | 5.89 | 5.86 | 5.26 | 4.64 | 3.6 | 3.86 | 3.65
44 | CCN(CC)c1ccccc1 [N,N-Diethyl aniline] | 186 | 200 | 6.08 | 6.09 | 5.9 | 6 | 5.98 | 6.05 | 4.83
45 | CN(C)C(=S)SSC(=S)N(C)C [Thiram] | 48.9 | 50 | 6 | 6.02 | 6.06 | 6.13 | 5.55 | 5.36 | 5.13
